Laboratory results published in ChEMBL document CHEMBL3431459, “Roche carnitine palmitoyltransferase modulator screening data (supplementary data associated with the publication CHEMBL2216752)”.
Converted amounts (≈) assume the structure as drawn.

Columns and labels:
[1] = SUPPLEMENTARY: Lyophilisation Solubility Assay (LYSA); assay type: physicochemical; details: read-out: Kinetic_solubility
[2] = SUPPLEMENTARY: Lipophilicity (log D) Determination by high-throughput shake-flask; assay type: physicochemical; details: octanol/water
[3] = target: T1, Carnitine O-palmitoyltransferase 2, mitochondrial (Homo sapiens, UniProt P23786); test: (§1) SUPPLEMENTARY: Inhibition of Carnitine palmitoyltransferase 2
T1 sequence (P23786 whole entry): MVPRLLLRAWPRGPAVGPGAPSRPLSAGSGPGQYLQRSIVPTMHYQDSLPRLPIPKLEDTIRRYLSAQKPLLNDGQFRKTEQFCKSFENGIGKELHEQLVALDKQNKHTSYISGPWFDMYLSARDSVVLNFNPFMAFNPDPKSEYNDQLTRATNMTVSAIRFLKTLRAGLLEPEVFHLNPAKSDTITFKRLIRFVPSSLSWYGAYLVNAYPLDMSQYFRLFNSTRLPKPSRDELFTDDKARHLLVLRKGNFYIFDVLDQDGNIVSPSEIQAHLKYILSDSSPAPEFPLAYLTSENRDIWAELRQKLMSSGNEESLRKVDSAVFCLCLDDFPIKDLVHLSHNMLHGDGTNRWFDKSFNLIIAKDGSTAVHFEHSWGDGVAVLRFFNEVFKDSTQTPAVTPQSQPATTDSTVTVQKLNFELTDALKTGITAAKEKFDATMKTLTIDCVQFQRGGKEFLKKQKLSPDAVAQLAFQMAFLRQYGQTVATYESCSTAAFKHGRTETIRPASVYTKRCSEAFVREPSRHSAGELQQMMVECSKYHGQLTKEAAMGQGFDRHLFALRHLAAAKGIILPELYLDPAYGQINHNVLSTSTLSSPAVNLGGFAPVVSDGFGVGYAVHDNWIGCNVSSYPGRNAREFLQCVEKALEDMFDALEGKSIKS

[4] = target: T2, Carnitine O-palmitoyltransferase 2, mitochondrial (Rattus norvegicus, UniProt P18886); test: as §1
T2 sequence (P18886 whole entry): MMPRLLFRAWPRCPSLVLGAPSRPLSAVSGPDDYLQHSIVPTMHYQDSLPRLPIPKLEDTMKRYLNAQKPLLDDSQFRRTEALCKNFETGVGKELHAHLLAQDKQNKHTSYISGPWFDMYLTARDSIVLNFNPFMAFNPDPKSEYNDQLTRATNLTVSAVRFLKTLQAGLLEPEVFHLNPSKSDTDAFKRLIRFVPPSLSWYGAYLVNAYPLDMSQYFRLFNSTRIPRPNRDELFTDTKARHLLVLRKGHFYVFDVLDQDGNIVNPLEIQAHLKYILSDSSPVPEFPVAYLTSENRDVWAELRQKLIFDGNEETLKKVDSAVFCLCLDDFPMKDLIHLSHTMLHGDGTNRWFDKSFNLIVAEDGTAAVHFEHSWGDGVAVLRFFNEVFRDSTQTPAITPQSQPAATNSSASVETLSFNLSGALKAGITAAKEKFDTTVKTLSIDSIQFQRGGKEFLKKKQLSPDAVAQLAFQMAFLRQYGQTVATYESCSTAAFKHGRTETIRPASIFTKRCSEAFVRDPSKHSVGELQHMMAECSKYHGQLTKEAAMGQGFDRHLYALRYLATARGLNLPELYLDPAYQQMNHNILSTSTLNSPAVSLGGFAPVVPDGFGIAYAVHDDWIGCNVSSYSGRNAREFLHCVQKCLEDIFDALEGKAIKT

[5] = target: T3, Carnitine O-palmitoyltransferase 1, muscle isoform (Homo sapiens, UniProt Q92523); test: SUPPLEMENTARY: Inhibition of Carnitine palmitoyltransferase 1, muscle isoform; set-up: species or system Muscle tissue
T3 sequence (Q92523 whole entry): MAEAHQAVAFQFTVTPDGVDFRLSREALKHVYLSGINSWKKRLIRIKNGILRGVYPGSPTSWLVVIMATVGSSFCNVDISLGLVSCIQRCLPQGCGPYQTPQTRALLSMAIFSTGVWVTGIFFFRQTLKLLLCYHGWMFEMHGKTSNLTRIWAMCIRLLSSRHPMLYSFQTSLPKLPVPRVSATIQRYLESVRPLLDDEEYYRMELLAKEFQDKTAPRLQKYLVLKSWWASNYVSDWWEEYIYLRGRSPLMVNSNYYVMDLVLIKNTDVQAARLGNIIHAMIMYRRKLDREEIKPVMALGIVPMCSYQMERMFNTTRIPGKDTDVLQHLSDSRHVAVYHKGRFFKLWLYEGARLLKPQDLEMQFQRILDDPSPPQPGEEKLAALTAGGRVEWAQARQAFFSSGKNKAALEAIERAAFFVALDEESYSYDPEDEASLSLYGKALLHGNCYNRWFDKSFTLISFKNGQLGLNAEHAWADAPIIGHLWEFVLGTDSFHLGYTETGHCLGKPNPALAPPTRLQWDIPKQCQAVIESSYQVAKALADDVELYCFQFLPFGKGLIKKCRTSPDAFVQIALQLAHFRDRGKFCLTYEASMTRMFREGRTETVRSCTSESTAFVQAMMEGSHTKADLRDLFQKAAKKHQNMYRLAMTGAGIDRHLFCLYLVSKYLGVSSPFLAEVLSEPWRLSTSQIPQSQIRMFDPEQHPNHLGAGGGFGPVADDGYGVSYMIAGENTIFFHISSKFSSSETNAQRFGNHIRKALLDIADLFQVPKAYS

[6] = SUPPLEMENTARY: PAMPA permeability assay; assay type: physicochemical; details: read-out: Permeability
[7] = target: T4, Carnitine O-palmitoyltransferase 1, liver isoform (Rattus norvegicus, UniProt P32198); test: (§2) SUPPLEMENTARY: Inhibition of Carnitine palmitoyltransferase 1, liver isoform
T4 sequence (P32198 whole entry): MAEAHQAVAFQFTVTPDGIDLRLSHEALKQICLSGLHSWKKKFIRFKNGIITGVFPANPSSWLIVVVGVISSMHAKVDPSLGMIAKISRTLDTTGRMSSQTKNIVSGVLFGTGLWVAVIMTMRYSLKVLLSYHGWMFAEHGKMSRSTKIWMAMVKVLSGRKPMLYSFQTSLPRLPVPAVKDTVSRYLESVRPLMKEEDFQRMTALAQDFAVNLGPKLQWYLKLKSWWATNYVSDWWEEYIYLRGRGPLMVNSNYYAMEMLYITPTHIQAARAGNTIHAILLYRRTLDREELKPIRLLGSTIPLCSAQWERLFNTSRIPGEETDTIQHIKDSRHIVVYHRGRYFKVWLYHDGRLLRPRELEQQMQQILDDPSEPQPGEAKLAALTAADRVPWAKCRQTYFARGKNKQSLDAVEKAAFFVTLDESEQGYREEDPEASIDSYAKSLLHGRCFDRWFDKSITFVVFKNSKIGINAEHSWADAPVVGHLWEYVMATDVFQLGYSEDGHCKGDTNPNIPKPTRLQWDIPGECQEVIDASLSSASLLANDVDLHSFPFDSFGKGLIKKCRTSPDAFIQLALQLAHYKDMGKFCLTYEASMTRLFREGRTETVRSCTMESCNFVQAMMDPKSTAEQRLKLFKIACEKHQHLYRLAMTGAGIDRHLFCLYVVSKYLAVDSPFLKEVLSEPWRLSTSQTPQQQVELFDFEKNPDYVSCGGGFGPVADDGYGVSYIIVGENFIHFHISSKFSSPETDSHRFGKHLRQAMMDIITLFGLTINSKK

[8] = target: T5, Carnitine O-palmitoyltransferase 1, liver isoform (Homo sapiens, UniProt P50416); test: as §2
T5 sequence (P50416 whole entry): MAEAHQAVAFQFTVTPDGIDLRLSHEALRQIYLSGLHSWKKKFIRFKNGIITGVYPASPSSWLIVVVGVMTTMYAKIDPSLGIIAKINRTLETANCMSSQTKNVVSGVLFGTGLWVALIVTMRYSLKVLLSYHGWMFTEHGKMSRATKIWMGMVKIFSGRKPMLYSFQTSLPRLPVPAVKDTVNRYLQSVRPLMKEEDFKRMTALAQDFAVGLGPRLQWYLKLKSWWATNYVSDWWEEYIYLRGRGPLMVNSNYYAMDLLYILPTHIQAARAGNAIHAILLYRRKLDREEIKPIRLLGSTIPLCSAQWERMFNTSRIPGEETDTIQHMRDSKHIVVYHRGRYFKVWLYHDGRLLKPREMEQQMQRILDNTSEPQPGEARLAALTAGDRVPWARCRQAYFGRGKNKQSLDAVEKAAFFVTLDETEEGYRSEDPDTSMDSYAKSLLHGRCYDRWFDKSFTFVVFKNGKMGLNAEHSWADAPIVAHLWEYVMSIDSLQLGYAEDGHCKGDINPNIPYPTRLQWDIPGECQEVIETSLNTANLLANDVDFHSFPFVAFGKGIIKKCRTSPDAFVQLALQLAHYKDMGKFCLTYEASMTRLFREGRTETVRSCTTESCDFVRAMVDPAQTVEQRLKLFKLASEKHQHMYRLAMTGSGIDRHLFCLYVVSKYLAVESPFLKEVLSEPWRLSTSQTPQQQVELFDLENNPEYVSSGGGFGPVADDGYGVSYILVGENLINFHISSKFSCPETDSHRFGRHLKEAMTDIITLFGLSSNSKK

SMILES | solubility kinetic [1] [µg/mL] | logD [2] | IC50 [3] [nM] | IC50 [4] [nM] | IC50 [5] [nM] | Papp [6] [×10⁻⁶ cm/s] | IC50 [7] [nM] | IC50 [8] [nM]
Cc1nnsc1-c1noc([C@H]2CCCCN2C(=O)COc2ccccc2)n1 | 27 (≈ 70 µM) | 3.04 | > 100000 | > 100000 | > 100000 | 5.95 | 1670 | 293
CCn1c(C)nc(Cl)c1-c1noc([C@H]2CCCCN2C(=O)COc2ccccc2)n1 | 24 (≈ 55.8 µM) | 3.17 | 37300 | > 100000 | > 100000 | 3.98 | 164 | 73.8
Cn1cnc(Br)c1-c1noc([C@H]2CCCCN2C(=O)COc2ccccc2)n1 | 83 (≈ 186 µM) | 2.68 | 40500 | > 100000 | > 100000 | 5.6 | 250 | 79.3
COc1ccc(Cl)cc1S(=O)(=O)c1cn(C)c2ccc(C(=O)Nc3ccc(C(=O)O)cc3)cc12 | 12 (≈ 24.1 µM) | 2.36 | 579 | 4270 | 2320 | 0.47 | 51.8 | 71.6
Cc1ncc(-c2noc([C@H]3CCCCN3C(=O)COc3ccccc3)n2)c(=O)[nH]1 | > 505 | 1.14 | > 100000 | > 100000 | > 100000 | 3.03 | 1560 | 140
NS(=O)(=O)c1ccc(-c2noc(C3C4CC4CN3C(=O)COc3ccccc3)n2)cc1 (stereo not given) | 45 (≈ 102 µM) | 2.04 | > 100000 | > 100000 | > 100000 | 5.17 | 90.8 | 110
COc1ccc(Cl)cc1S(=O)(=O)N1CCOc2c(F)cc(C(=O)Nc3ccc(C(=O)O)c(F)c3)cc21 | 7 (≈ 13 µM) | 0.52 | 1530 | 6510 | 4560 | 1.66 | 56.7 | 57.5
COc1ccc(Cl)cc1S(=O)(=O)N1CCOc2c(F)cc(C(=O)Nc3ccc(C(=O)O)c(Cl)c3)cc21 | 380 (≈ 684 µM) | 0.42 | 1720 | 5740 | 5110 | 1.45 | 166 | 131
COc1ccc(Cl)cc1S(=O)(=O)N1CCOc2c(Cl)cc(C(=O)Nc3ccc(C(=O)O)cc3)cc21 | 1 (≈ 1.86 µM) | 3.15 | 578 | 28200 | 2610 | 2.19 | 49.4 | 77
COc1ccc(Cl)cc1S(=O)(=O)N1COc2c(C)cc(C(=O)Nc3ccc(C(=O)O)cc3)cc21 | 13 (≈ 25.8 µM) | 1.32 | 312 | 2010 | 35900 | 1.85 | 79.4 | 78.2
